# Test results taken from US4477444A, “Antracycline glycosides, pharmaceutical compositions and method of use” (priority 1981, dated 1984).
# Experiments:
# [1] = test system: Hela cells; assay: Activity on Hela cells cloning efficiency in vitro, treatment for 24 hours; assay type: cell-based; conditions: for % of controls (Hela cells cloning efficiency): 24 hours; for cytotoxicity relative to daunorubicin and doxorubicin: Hela cells cloning efficiency in vitro
# [2] = test system: Gross leukemia; assay: Activity against i.v. inoculated Gross leukemia in mice, i.v. treatment on day 1 after tumor inoculation; assay type: in vivo
# Procedure: (§1) Compound XOO-0148 was also tested on the i.v. inoculated Gross leukemia. Mice were treated i.v. on day 1.
# (§2) Activity against Gross leukemia of XOO-0148
# (§3) Treatment i.v. on day 1 after tumor inoculation
# (§4) ^(a) T/C % = median survival time of treated mice/median survival tim
# [3] = as above; assay type: in vivo; conditions: mouse, in vivo, iv; i.v. day 1, Gross leukemia mice; read-out: maximal tolerated dose
# Procedure: as §1, §2, §3, §4
# [4] = test system: P388 leukemia; assay: Activity against P388 ascitic leukemia in mice, i.p. treatment on day 1 after tumor inoculation; assay type: in vivo; conditions: for antitumor activity (overall conclusion): conclusion from all studies; for potency relative to the corresponding parent compounds / toxicity relative to the corresponding parent compounds: i.p. day 1, P388 leukemia mice
# Description: (§5) Activity against P388 ascitic leukemia of XOO-0148 and
# (§6) Treatment i.p. on day 1 after tumor inoculation
# as §4
# [5] = as above; assay type: in vivo; conditions: mouse, in vivo, ip; for MTD: i.p. day 1, P388 leukemia mice, read-out: maximal tolerated dose
# Description: as §5, §6, §4
# [6] = dose 12.5 (dose unit not given)
smiles,measurement,setting,value
"COc1cccc2c1C(=O)c1c(O)c3c(c(O)c1C2=O)C[C@@](O)(C(C)=O)C[C@@H]3O[C@H]1C[C@H](N)[C@H](O)[C@H](C)O1 [Daunorubicin, daunorubicin, reference compound]",% of controls (Hela cells cloning efficiency),[1]; dose 6.2 (dose unit not given),"90,48%"
same,% of controls (Hela cells cloning efficiency),[1]; [6],"44,19%"
same,T/C % (median survival time of treated mice/median survival time of controls x100),[2]; 4.6 mg/kg i.v. day 1,180%
same,Toxicity Death,[2]; 4.6 mg/kg i.v. day 1,0/10
same,T/C % (median survival time of treated mice/median survival time of controls x100),[2]; 6 mg/kg i.v. day 1,250%
same,Toxicity Death,[2]; 6 mg/kg i.v. day 1,0/10
same,T/C % (median survival time of treated mice/median survival time of controls x100),[2]; 7.8 mg/kg i.v. day 1,250%
same,Toxicity Death,[2]; 7.8 mg/kg i.v. day 1,3/10
same,MTD,[3],6 mg/kg
same,T/C % (median survival time of treated mice/median survival time of controls x100),[4]; 2.9 mg/kg i.p. day 1,155%
same,Toxicity Death,[4]; 2.9 mg/kg i.p. day 1,0/10
same,T/C % (median survival time of treated mice/median survival time of controls x100),[4]; 4.4 mg/kg i.p. day 1,160%
same,Toxicity Death,[4]; 4.4 mg/kg i.p. day 1,2/10
same,T/C % (median survival time of treated mice/median survival time of controls x100),[4]; 6.6 mg/kg i.p. day 1,150%
same,Toxicity Death,[4]; 6.6 mg/kg i.p. day 1,5/10
same,MTD,[5],2.9 mg/kg
"COc1cccc2c1C(=O)c1c(O)c3c(c(O)c1C2=O)C[C@@](O)(C(=O)CO)C[C@@H]3O[C@H]1C[C@H](N)[C@H](O)[C@H](C)O1 [Doxorubicin, doxorubicin, reference compound]",% of controls (Hela cells cloning efficiency),[1]; [6],"63,93%"
same,% of controls (Hela cells cloning efficiency),[1]; dose 25 (dose unit not given),"26,22%"
same,T/C % (median survival time of treated mice/median survival time of controls x100),[4]; 4.4 mg/kg i.p. day 1,245%
same,Toxicity Death,[4]; 4.4 mg/kg i.p. day 1,0/10
same,T/C % (median survival time of treated mice/median survival time of controls x100),[4]; 6.6 mg/kg i.p. day 1,255%
same,Toxicity Death,[4]; 6.6 mg/kg i.p. day 1,0/10
same,T/C % (median survival time of treated mice/median survival time of controls x100),[4]; 10 mg/kg i.p. day 1,345%
same,Toxicity Death,[4]; 10 mg/kg i.p. day 1,0/10
same,MTD,[5],10 mg/kg
"COc1cccc2c1C(=O)c1c(O)c3c(c(O)c1C2=O)C[C@@](O)(C(C)=O)C[C@@H]3O[C@H]1C[C@@H](N)C[C@H](C)O1 [XOO-0148, 4'-deoxy-3'-epi-daunorubicin]",cytotoxicity relative to daunorubicin and doxorubicin,[1],less cytotoxic than daunorubicin and doxorubicin
same,% of controls (Hela cells cloning efficiency),[1]; dose 1.5 (dose unit not given),89%
same,% of controls (Hela cells cloning efficiency),[1]; dose 3.1 (dose unit not given),100%
same,% of controls (Hela cells cloning efficiency),[1]; dose 6.2 (dose unit not given),98%
same,% of controls (Hela cells cloning efficiency),[1]; [6],111%
same,% of controls (Hela cells cloning efficiency),[1]; dose 25 (dose unit not given),"74,95%"
same,% of controls (Hela cells cloning efficiency),[1]; dose 50 (dose unit not given),86%
same,% of controls (Hela cells cloning efficiency),[1]; dose 100 (dose unit not given),10%
same,T/C % (median survival time of treated mice/median survival time of controls x100),[2]; 22.5 mg/kg i.v. day 1,240%
same,Toxicity Death,[2]; 22.5 mg/kg i.v. day 1,0/10
same,antitumor activity relative to daunorubicin,[2]; 22.5 mg/kg i.v. vs daunorubicin at 6 mg/kg,about as active as daunorubicin
same,T/C % (median survival time of treated mice/median survival time of controls x100),[2]; 33.7 mg/kg i.v. day 1,150%
same,Toxicity Death,[2]; 33.7 mg/kg i.v. day 1,6/10
same,T/C % (median survival time of treated mice/median survival time of controls x100),[2]; 50 mg/kg i.v. day 1,120%
same,Toxicity Death,[2]; 50 mg/kg i.v. day 1,10/10
same,toxicity relative to daunorubicin,"[2]; i.v. day 1, Gross leukemia mice",less toxic than daunorubicin
same,MTD,[3],22.5 mg/kg
same,T/C % (median survival time of treated mice/median survival time of controls x100),[4]; 5.1 mg/kg i.p. day 1,110%
same,Toxicity Death,[4]; 5.1 mg/kg i.p. day 1,0/10
same,T/C % (median survival time of treated mice/median survival time of controls x100),[4]; 9.2 mg/kg i.p. day 1,120%
same,Toxicity Death,[4]; 9.2 mg/kg i.p. day 1,0/10
same,T/C % (median survival time of treated mice/median survival time of controls x100),[4]; 16.6 mg/kg i.p. day 1,130%
same,Toxicity Death,[4]; 16.6 mg/kg i.p. day 1,0/10
same,toxicity at the maximal dose tested,[4]; 30 mg/kg i.p.,not toxic
same,T/C % (median survival time of treated mice/median survival time of controls x100),[4]; 30 mg/kg i.p. day 1,145%
same,Toxicity Death,[4]; 30 mg/kg i.p. day 1,0/10
same,antitumor activity relative to daunorubicin,[4]; 30 mg/kg i.p. vs daunorubicin at 2.9 mg/kg,about as active as daunorubicin
same,antitumor activity (overall conclusion),[4],remarkable antitumor activity
same,potency relative to the corresponding parent compounds,[4],less potent than the corresponding parent compounds
same,toxicity relative to the corresponding parent compounds,[4],less toxic
"COc1cccc2c1C(=O)c1c(O)c3c(c(O)c1C2=O)C[C@@](O)(C(=O)CO)C[C@@H]3O[C@H]1C[C@@H](N)C[C@H](C)O1 [XOO-0155, 4'-deoxy-3'-epi-doxorubicin]",cytotoxicity relative to daunorubicin and doxorubicin,[1],less cytotoxic than daunorubicin and doxorubicin
same,% of controls (Hela cells cloning efficiency),[1]; dose 100 (dose unit not given),"12,5%"
same,T/C % (median survival time of treated mice/median survival time of controls x100),[4]; 15 mg/kg i.p. day 1,195%
same,Toxicity Death,[4]; 15 mg/kg i.p. day 1,0/10
same,T/C % (median survival time of treated mice/median survival time of controls x100),[4]; 22.5 mg/kg i.p. day 1,235%
same,antitumor effect relative to doxorubicin,[4]; 22.5 mg/kg i.p. vs doxorubicin at 10 mg/kg,lower than that observed after treatment with doxorubicin
same,T/C % (median survival time of treated mice/median survival time of controls x100),[4]; 33.7 mg/kg i.p. day 1,260%
same,Toxicity Death,[4]; 33.7 mg/kg i.p. day 1,4/10
same,T/C % (median survival time of treated mice/median survival time of controls x100),[4]; 50 mg/kg i.p. day 1,60%
same,Toxicity Death,[4]; 50 mg/kg i.p. day 1,8/10
same,antitumor activity (overall conclusion),[4],remarkable antitumor activity
same,potency relative to the corresponding parent compounds,[4],less potent than the corresponding parent compounds
same,toxicity relative to the corresponding parent compounds,[4],less toxic
same,antitumor effect,[4]; maximal tolerated dose 22.5 mg/kg i.p.,remarkable antitumor effect
same,mortality,"[5]; 22.5 mg/kg i.p. day 1, read-out: Toxicity Death",10%
same,MTD,[5],22.5 mg/kg
